Values joined by “and” are separate entries in the source; they are usually repeats but may differ in a detail not shown here. Equal values may be shown once.
Tests used:
[1] = Fluorescence titration, binding affinity for TO3-Biotin; details: ligand TO3-B (TO3-Biotin)
Text: FIG. 2|RNA Mango I, II, III and IV core sequences and their properties. (a) Color coded alignment of RNA Mango I, II, III and IV. G residues in yellow are protected from DMS cleavage (data from panel d) when folded in the presence of fluorophore. Quadruplex stacks and their associated propeller sequences are numbered 1 through 4. The GAAA isolation motif of Mango I, together with two adenines essential for binding, are shown in green and red respectively. Purple shading represents a flanking stem region common for all four Mango aptamers. Schematic: A tertiary structure schematic of Mango I, showing tier 1, 2 and 3 of its quadruplex structure (T1, T2 and T3) and color-coded as in (a). […] Bottom: Top view of the Mango I core (PBD ID: 5V3F), showing the T3 tier of the quadruplex and relevant propeller residues, color coding matches the schematic and panel a. […] KD values are shown next to each titration. (c) Same as for panel b but using 20 nM TO3-Biotin. Data for panels b and c have been normalized such that Mango I has a maximum fluorescence of 1. Error bars are standard deviation of three replicates. (d) DMS chemical protection patterns for the four Mango aptamers. 3′ end-labelled RNA (terminal ^32pCp shown as a black asterisk) was subjected to DMS chemical modification followed by reduction by NaBH4 and aniline cleavage as described in the methods. […] Legend: T1—denatured T1 ladder; OH—partial alkaline hydrolysis ladder; (−) DMS—denatured reaction with ddH2O added in place of DMS; 80° C.
Fluorescence data was gathered using a Varian Cary Eclipse Spectrophotometer unless otherwise stated. […] Fluorescence was measured at the maximum excitation and emission wavelengths of each complex (FIG. 13).
Or to the following equation for TO3-Biotin and NMM experiments: F([RNA])=Fmax[RNA]/(KD+[RNA])+Funbound (Eq. 2) Fmax was determined using Eq. 1 or Eq. 2 as appropriate. Temperature Dependent Fluorescence and UV Melting Curves
(§1) Fluorescence readings were recorded using a Varian Cary Eclipse Spectrophotometer set to measure at the maximum excitation and emission wavelengths of the Mango II aptamer dye complex. Fluorescence titrations were performed in Mango selection buffer (WB: 140 mM KCl, 1 mM MgCl2, 10 mM NaH2PO4 pH 7.2, 0.05% Tween-20).

[2] = Fluorescence titration, binding affinity for TO1-OAc; details: ligand TO1-OAc
Text: (§2) We determined the affinity and fluorescence enhancement of four compounds: TO1-OAc (TO1-acetate), TO1-ME (TO1-methylester), TO1-PA (TO1-propanylamide), TO1-PE (TO1-pentenoylester) (FIG. 42, Table 8 & 9). Binding affinity and fluorescence enhancement of TO1-OAc is drastically diminished, and nearly identical between the wild-type and A22U mutant. […] Further extension of the linker stabilizes the binding pocket by stacking on T3 but becomes sterically hindered by a bulky purine in position 22. The A22U mutation would limit steric clashes while preventing misfolding of the G-quadruplex core. Thus, the improved properties of the Mango-II A22U mutant may arise from improved packing of the linker of the fluorophore with an RNA with a homogeneous or predominant conformation.
as §1

[3] = Fluorescence titration, binding affinity for TO1-ME; details: ligand TO1-ME
Text: as §2, §1

[4] = Fluorescence titration, binding affinity for TO1-PA; details: ligand TO1-PA
Text: as §2, §1

[5] = Fluorescence titration, binding affinity for TO1-PE; details: ligand TO1-PE
Text: as §2, §1

[6] = Fluorescence enhancement of TO3-Biotin; format: biochemical; details: ligand TO3-B; 0.82 μM ligand, 2 μM RNA
Procedure: (§3) The bandwidth for all measurements was 1.5 nm for all experiments. Measurements were performed in a 0.2 cm path length cuvette in a background of 20 mM MOPS pH 7.0, 150 mM KCl, 10 μM EDTA. Fluorescence readings were taken in the absence of RNA at a ligand concentration of 0.82 μM. A concentrated, annealed stock of RNA was then added to the cuvette resulting in a final concentration of 2 μM RNA and allowed to equilibrate for 1 minute prior to taking an emission reading. Fluorescence enhancement was determined by dividing the fluorescence signal of ligand in the presence of RNA by the fluorescence signal in the absence of RNA corrected for the background of the instrument.

[7] = Fluorescence enhancement of TO1-OAc; format: biochemical; details: ligand TO1-OAc
Procedure: as §3

[8] = Fluorescence enhancement of TO1-ME; format: biochemical; details: ligand TO1-ME
Procedure: as §3

Molecule: Mango-II: minimal construct engineered from isolate R2-1; SEQ ID NO: 6902 GCGUACGAAGGAGAGGAGAGGAAGAGGAGAGUACGC (chemistry not given here)
- Kd [1]: 1.4 nM and ~1.4 nM
- Kd [2]: 56 ± 2 nM
- Kd [3]: 2.41 ± 0.54 nM
- Kd [4]: 1.04 ± 0.57 nM
- Kd [5]: 0.37 ± 0.06 nM
- FIE (fluorescence enhancement) [6]: 61 ± 2
- FIE (fluorescence enhancement) [7]: 258 ± 10
- FIE (fluorescence enhancement) [8]: 401 ± 6

B1: Mango II - A22U: Mango-II point mutant; SEQ ID NO: 6903 / 6905 (nucleic acid)
chain 1: GCGUACGAAGGAGAGGAGAGGUAGAGGAGAGUACGC
chain 2: GGCACGUACGAAGGAGAGGAGAGGUAGAGGAGAGUACGUGC
modifications: chemistry not given here
- Kd [1]: 5 ± 2.8 nM
- Kd [2]: 43 ± 3 nM
- Kd [3]: 4.81 ± 1.02 nM
- Kd [4]: 2.21 ± 1.09 nM
- Kd [5]: 1 ± 0.13 nM
- FIE (fluorescence enhancement) [6]: 46 ± 3
- FIE (fluorescence enhancement) [7]: 315 ± 4
- FIE (fluorescence enhancement) [8]: 302 ± 6

— US11434490B2, “Fluorogen-binding RNA aptamers” (CENTRE NATIONAL DE LA RECHERCHE SCIENTIFIQUE, priority 2017, dated 2022)
